This is an account of results in patent US20250206757A1 (GASHERBRUM BIO, INC., priority 2022, published 2025).

The target of the experiment is GLP-1 Receptor (Homo sapiens, UniProt P43220). Description: GLP-1R agonist cAMP stimulation assay (HEK293/GLP1R/CRE-LUC cells, HTRF cAMP dynamic 2 kit). Type of experiment: cell-based. The conditions noted are these: HEK293/CRE-Luc cell line stably expressing the GLP-1 Receptor; 30 min incubation at 37° C. Here is the method:
Activation of GLP-1 receptor is known to stimulate cyclic AMP (cAMP) production in cells which indicates primary coupling to the Gas subunit of the G protein heterotrimeric complex.
To optimize functional activity directed toward Gas coupling, a HEK293/CRE-Luc cell line developed by HDB stably expressing the GLP-1 Receptor was used. 200× concentration of compound working solutions were prepared (Agilent Technologies Bravo) with 1/2 log serial dilution in 384-well Echo LDV plate (Labcyte, Cat #LP-0200). 50 nL/well 200× concentration of compound working solutions were moved to 384-well white low volume plate (Greiner, Cat #784075) using Labcyte ECHO550. 1×10^5 cells/mL HEK293/GLP1R/CRE-LUC (HD Biosciences) cell suspensions prepared with assay buffer [DPBS containing 0.5 mM IBMX (Sigma, Cat #15879) and 0.10% BSA (GENVIEW, Cat #FA016-100g)], 10 μL cell suspensions were added to each well of previous generated assay plate which already contains 50 nL compound at 200× concentration using ThermoFisher Multidrop Combi (1000 cells/well). Seal the plate and incubate at 37° C. with 5% CO2 for 30 min.
After incubation the cAMP assay signal was generated using cAMP dynamic 2 Kit (Cisbio). 5 μL cAMP-d2 working solution was added to each well, followed with 5 μL Anti-cAMP antibody-cryptate working solution added to each well using ThermoFisher Multidrop Combi. Incubate at room temperature for 1 hour protected from light. Read the fluorescence at 665 and 615 nm with Reader PerkinElmer EnVision.
Background: TR-FRET usually uses a lanthanide donor and a delayed reading to cut background.

As a reminder, the EC50 is the concentration needed to bring the measured effect to its halfway point. A higher EC50 goes with a need for much substance.

GLP-1 Receptor, sequence (P43220 24-463): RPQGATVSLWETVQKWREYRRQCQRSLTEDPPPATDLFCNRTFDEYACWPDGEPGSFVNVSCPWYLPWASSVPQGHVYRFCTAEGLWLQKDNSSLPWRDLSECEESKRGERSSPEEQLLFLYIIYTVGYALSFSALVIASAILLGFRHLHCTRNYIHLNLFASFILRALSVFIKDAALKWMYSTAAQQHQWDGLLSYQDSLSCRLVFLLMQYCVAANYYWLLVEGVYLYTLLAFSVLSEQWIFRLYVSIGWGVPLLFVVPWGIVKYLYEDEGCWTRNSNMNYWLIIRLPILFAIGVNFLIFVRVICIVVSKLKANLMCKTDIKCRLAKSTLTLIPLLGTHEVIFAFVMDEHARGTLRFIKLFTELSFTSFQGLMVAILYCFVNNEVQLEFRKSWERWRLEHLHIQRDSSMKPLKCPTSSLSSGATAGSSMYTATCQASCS

`COC(C)Cn1c(CN2CCc3cc(C(F)(F)F)c(OCc4ccc(Cl)cc4F)nc3C2)nc2cc(-c3nnc(C(F)(F)F)[nH]3)ncc21` (stereo in doubt) [Compound 81, 2-[(4-chloro-2-fluorophenyl)methoxy]-7-({3-[(2S)-2-methoxypropyl]-6-[5-(trifluoromethyl)-4H-1,2,4-triazol-3-yl]-3H-imidazo[4,5-c]pyridin-2-yl}methyl)-3-(trifluoromethyl)-5,6,7,8-tetrahydro-1,7-naphthyridine] had an EC50 of 1 to 300 nM. The compound `O=c1[nH]c(-c2cnc3c(c2)nc(CN2CCc4ccc(OCc5ccc(Cl)cc5F)nc4C2)n3C[C@@H]2CCO2)no1` [Compound 1, (S)-3-(2-((2-((4-chloro-2-fluorobenzyl)oxy)-5,8-dihydro-1,7-naphthyridin-7(6H)-yl)methyl)-3-(oxetan-2-ylmethyl)-3H-imidazo[4,5-b]pyridin-6-yl)-1,2,4-oxadiazol-5(4H)-one] returned an EC50 of 1 to 300 nM.

`O=c1[nH]c(-c2ccc3nc(CN4CCc5ccc(OCc6ccc(Cl)cc6F)nc5C4)n(C[C@@H]4CCO4)c3c2)no1` [Compound 2, (S)-3-(2-((2-((4-chloro-2-fluorobenzyl)oxy)-5,8-dihydro-1,7-naphthyridin-7(6H)-yl)methyl)-1-(oxetan-2-ylmethyl)-1H-benzo[d]imidazol-6-yl)-1,2,4-oxadiazol-5(4H)-one] showed an EC50 of 1 to 300 nM. Compound `Fc1cc(Cl)ccc1COc1nc2c(cc1C1CC1)CCN(Cc1nc3cc(-c4nnc(C(F)(F)F)[nH]4)cnc3n1C[C@@H]1CCO1)C2` [Compound 3, 2-[(4-chloro-2-fluorophenyl)methoxy]-3-cyclopropyl-7-[(3-{[(2S)-oxetan-2-yl]methyl}-6-[5-(trifluoromethyl)-4H-1,2,4-triazol-3-yl]-3H-imidazo[4,5-b]pyridin-2-yl)methyl]-5,6,7,8-tetrahydro-1,7-naphthyridine] yielded an EC50 of 1 to 300 nM. In the case of `Fc1cc(Cl)ccc1COc1nc2c(cc1C(F)(F)F)CCN(Cc1nc3cc(-c4nnc(C(F)(F)F)[nH]4)ncc3n1C[C@@H]1CCO1)C2` [Compound 4, 2-[(4-chloro-2-fluorophenyl)methoxy]-7-[(3-{[(2S)-oxetan-2-yl]methyl}-6-[5-(trifluoromethyl)-4H-1,2,4-triazol-3-yl]-3H-imidazo[4,5-c]pyridin-2-yl)methyl]-3-(trifluoromethyl)-5,6,7,8-tetrahydro-1,7-naphthyridine] it was below 1 nM; in that of `Fc1cc(Cl)ccc1COc1nc2c(cc1Cl)CCN(Cc1nc3cc(-c4nnc(C(F)(F)F)[nH]4)ncc3n1C[C@@H]1CCO1)C2` [Compound 5, 3-chloro-2-[(4-chloro-2-fluorophenyl)methoxy]-7-[(3-{1[(2S)-oxetan-2-yl]methyl}-6-[5-(trifluoromethyl)-4H-1,2,4-triazol-3-yl]-3H-imidazo[4,5-c]pyridin-2-yl)methyl]-5,6,7,8-tetrahydro-1,7-naphthyridine], below 1 nM.

`Fc1cc(Cl)ccc1COc1nc2c(cc1C(F)(F)F)CCN(Cc1nc3cc(-c4nnc(C(F)(F)F)[nH]4)nnc3n1C[C@@H]1CCO1)C2` [Compound 6, 2-[(4-chloro-2-fluorophenyl)methoxy]-7-[(7-{[(2S)-oxetan-2-yl]methyl}-3-[5-(trifluoromethyl)-4H-1,2,4-triazol-3-yl]-7H-imidazo[4,5-c]pyridazin-6-yl)methyl]-3-(trifluoromethyl)-5,6,7,8-tetrahydro-1,7-naphthyridine]: the EC50 was below 1 nM. As to `Fc1cc(Cl)ccc1COc1nc2c(cc1Cl)CCN(Cc1nc3cc(-c4nnc(C(F)(F)F)[nH]4)nnc3n1C[C@@H]1CCO1)C2` [Compound 7, 3-chloro-2-[(4-chloro-2-fluorophenyl)methoxy]-7-[(7-{[(2S)-oxetan-2-yl]methyl}-3-[5-(trifluoromethyl)-4H-1,2,4-triazol-3-yl]-7H-imidazo[4,5-c]pyridazin-6-yl)methyl]-5,6,7,8-tetrahydro-1,7-naphthyridine], the EC50 was below 1 nM.
